# Patent publication US6497896B2, “Method for administering camptothecins via injection of a pharmaceutical composition comprising microdroplets containing a camptothecin” (priority 2001, dated 2002)
# Read-outs that look alike come from different tables or passages of the source.
# Assays:
# [1] = test system: A375 human melanoma xenograft; conditions: for survivors (FIG. 10 comparison): I.P.
# Excerpt: The following study evaluates two intravenous formulations according to the present invention against human tumor xenografts in athymic nude mice. […] Examples 1 and 2 describe the compositions of IDD-P (FIG. 1; formulation 1-F) and IDD-D respectively.
# Husbandry: Female nude mice were 16 weeks of age (NCR-nufBr; Taconic Farms) for the A375 study. The mice were fed ad libitum water (reverse osmosis, 1 ppm C1) and autoclaved Prolab NIH-31 M/5% Rodent Diet consisting of 18% protein, 5% fat, 6% fiber, and 8% ash. Mice were housed in static microisolators on a 12-hour light cycle at 21-22° C. (70-72° F.) and 40%-60% humidity. The animal care and use program is AAALAC International accredited and specifically follows and complies with the recommendation of the National Research Council's Guidefor the Care and Use of Laboratory Animals.
# Tumor Implantation: An A375 melanoma fragment (1 mm 3) was implanted subcutaneously in the flank of each nude mouse. When the tumors reached the 60-112 mg size range, the mice were sorted into treatment groups (on Day 1) such that the group mean tumor sizes ranged from 71.3 mg-72.5 mg. Estimated tumor weight was calculated using the formula: [formula]
# CAMPTOSAR®, DTIC®, and HYCAMTIN® were obtained as the marketed drugs and solutions were prepared fresh on the day of dosing. CAMPTOSAR® (irinotecan, Phannacia & Upjohn Company, 20 mg/ml) and DTIC® (dacarbazine, Bayer Corporation, 20 mg/ml) were diluted with D5W. HYCAMTIN® (topotecan, SmithKlein Beecham) was reconstituted with water at 1 mg/ml.
# Treatments: Volumes of 0.20 ml per 20-g mouse, body-weight adjusted, were administered once daily. Tumor-bearing athymic nude mice were matched on Day 1 into 13 groups of ten animals and drug administration was initiated. […] Three reference drugs were administered I.P.: CAMPTOSAR® was given in three doses at weekly intervals (qwk×3); HYCAMTIN® was given in four doses at four-day intervals (q4d×4); and DTIC® was given in five consecutive daily doses (qd×5). The tumor growth control group for these reference treatments received no treatment (Group 1).
# Tumor Growth Endpoint: The tumor growth delay (TGD) method was used to assess efficacy. Tumor dimensions were measured twice weekly until the experiment was terminated on Day 62. Each animal was euthanized as a “cancer death” when its A375 melanoma reached a size of 2.0 g. Mean Day of Survival (MDS) values for all groups were based on the calculated day of death of each mouse, which is given by the formula: [formula]
# TGD values, which represent treatment-effected extensions of survival time, were calculated from MDStreated−MDScontrol, the difference in MDS value for a given treatment group and the MDS value for A375 melanoma-bearing mice that received no treatment or the corresponding vehicle.
# At the termination of the experiment on Day 62, treatment responses in survivors were classified as either complete tumor regression (CR), partial tumor regression (PR), or stable/progressive disease (SD/PD). A CR response indicates the absence of measurable tumor. In a PR response, the final tumor weight is lower than on Day 1 but larger than 0 mg. In a SD/PD response, mice survived to Day 62 with a progressively growing or stable tumor size that had not reached the 2.0-g endpoint.
# Evaluation of Toxicity: The maximum tolerated dose (MTD), as defined by the NCI, is the highest dose at which no more than 10% of the animals die and the group mean body-weight loss is no more than 20%. Body weights were measured daily for four or five days and then twice weekly thereafter until the experiments were terminated on Day 62 of the study. The animals were also examined frequently for clinical signs of any adverse, drug-related side effects. Because mice are not tagged for MTD studies, only the mean group body weights recorded in the appended raw data are significant in those studies.
# [2] = whole blood; cited from earlier work
# [3] = biological target: human serum albumin (HSA) (Homo sapiens, UniProt P02768); conditions: PBS at pH 7.4; cited from earlier work
# Chain of human serum albumin (HSA) (P02768 25-609): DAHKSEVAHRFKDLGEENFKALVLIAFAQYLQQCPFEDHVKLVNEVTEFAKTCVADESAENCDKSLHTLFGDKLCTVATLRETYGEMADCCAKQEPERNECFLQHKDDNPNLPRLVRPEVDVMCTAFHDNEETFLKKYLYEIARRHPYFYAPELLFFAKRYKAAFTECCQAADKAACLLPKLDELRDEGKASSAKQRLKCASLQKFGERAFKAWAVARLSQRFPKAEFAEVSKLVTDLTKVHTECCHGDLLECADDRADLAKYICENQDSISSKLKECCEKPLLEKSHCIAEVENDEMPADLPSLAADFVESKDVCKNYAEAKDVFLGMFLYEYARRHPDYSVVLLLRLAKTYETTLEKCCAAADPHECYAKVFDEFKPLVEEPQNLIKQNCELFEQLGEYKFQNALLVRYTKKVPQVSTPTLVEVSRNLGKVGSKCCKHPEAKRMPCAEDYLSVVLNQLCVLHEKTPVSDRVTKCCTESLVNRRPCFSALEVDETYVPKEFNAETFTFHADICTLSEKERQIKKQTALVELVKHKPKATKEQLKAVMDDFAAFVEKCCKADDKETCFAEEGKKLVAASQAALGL
# [4] = human plasma, pH 7.4, 37° C.; cited from earlier work
# [5] = cited from earlier work
# [6] = in 3% DMA 2.0 mg/kg p.o., q3d×4
# [7] = in 3% DMA 4.0 mg/kg p.o., q3d×4
smiles,measurement,setting,value
"CC[C@@]1(O)C(=O)OCc2c1cc1n(c2=O)Cc2cc3c(CN(C)C)c(O)ccc3nc2-1 [HYCAMTIN®, topotecan]",62-day survivors (number of 10 mice),"[1]; 10 mg/kg I.P., q4d×4",one
same,mean day of survival (MDS),"[1]; 10 mg/kg I.P., q4d×4, Group 6 (n=9)",46.7 days
same,tumor growth delay (TGD),"[1]; 10 mg/kg I.P., q4d×4, vs untreated Group 1",16.4 days
same,survivors (FIG. 10 comparison),[1]; optimal regimen (10 mg/kg q4d×4),0%
"CC[C@@]1(O)C(=O)OCc2c1cc1n(c2=O)Cc2cc3ccccc3nc2-1 [camptothecin, 20(S)-camptothecin]",equilibrium α-hydroxy lactone concentration,[2],5.3%
same,half-life of lactone,[2],22 min
same,affinity of HSA for carboxylate form versus α-hydroxy lactone form,[3],150 fold
same,% α-hydroxy lactone at equilibrium,[4],0.2%
same,half-life of lactone ring opening,[4],11 min
"CCc1c2c(nc3ccc(OC(=O)N4CCC(N5CCCCC5)CC4)cc13)-c1cc3c(c(=O)n1C2)COC(=O)[C@]3(O)CC [CAMPTOSAR®, irinotecan]",62-day survivors (number of 10 mice),"[1]; 100 mg/kg I.P., qwk×3",one
same,mean day of survival (MDS),"[1]; 100 mg/kg I.P., qwk×3, Group 5 (n=9)",47.3 days
same,tumor growth delay (TGD),"[1]; 100 mg/kg I.P., qwk×3, vs untreated Group 1",17 days
same,survivors (FIG. 10 comparison),[1]; optimal regimen (100 mg/kg qwk×3),0%
CC[C@@](O)(C(=O)[O-])c1cc2n(c(=O)c1CO)Cc1cc3ccccc3nc1-2.[Na+] [Sodium camptothecin],side effects,[5]; administered via i.v.,unpredictable side effects such as myelosuppression and hemorrhagic cystitis
same,antitumor activity in clinical trials,"[5]; solubilized by sodium hydroxide in water, early 70's",antitumor activity
"CN(C)/N=N/c1[nH]cnc1C(N)=O [DTIC®, dacarbazine]",mean day of survival (MDS),"[1]; 150 mg/kg I.P., qd×5, Group 7 (n=8)",37.6 days
same,tumor growth delay (TGD),"[1]; 150 mg/kg I.P., qd×5, vs untreated Group 1, not statistically significant",7.3 days
same,survivors (FIG. 10 comparison),[1]; optimal regimen (150 mg/kg qd×5),10%
"CC[C@@]1(O)C(=O)OCc2c1cc1n(c2=O)Cc2cc3c([N+](=O)[O-])cccc3nc2-1 [9-nitro-camptothecin, 9-nitro-20(S)-camptothecin]","CR responses, share of mice","[1]; 2 mg/kg p.o., q3d×4",40%
same,"CR responses, share of mice","[1]; 4 mg/kg p.o., q3d×4",40%
same,62-day survival rate,[1]; [6],70%
same,62-day survivors (number of 10 mice),[1]; [6],seven
same,CR responses on Day 62,[1]; [6],4
same,PR responses on Day 62,[1]; [6],1
same,SD/PD responses on Day 62,[1]; [6],2
same,tolerability,[1]; [6],well tolerated
same,mean day of survival (MDS),"[1]; in 3% DMA 2.0 mg/kg p.o., q3d×4, Group 13 (n=3)",47.6 days
same,tumor growth delay (TGD),"[1]; in 3% DMA 2.0 mg/kg p.o., q3d×4, vs vehicle control Group 4",21.6 days
same,62-day survival rate,[1]; [7],70%
same,62-day survivors (number of 10 mice),[1]; [7],seven
same,CR responses on Day 62,[1]; [7],4
same,SD/PD responses on Day 62,[1]; [7],3
same,tolerability,[1]; [7],well tolerated
same,mean day of survival (MDS),"[1]; in 3% DMA 4.0 mg/kg p.o., q3d×4, Group 12 (n=3)",45.3 days
same,tumor growth delay (TGD),"[1]; in 3% DMA 4.0 mg/kg p.o., q3d×4, vs vehicle control Group 4",19.3 days
